Values quoted from earlier work as cited in paper PMC12500691 (Frontiers in Cellular and Infection Microbiology, 2025).

Test system: NETosis
Details: cited from earlier work

CC[C@H](C)[C@H](NC(=O)[C@H](CCCCN)NC(=O)[C@H](CCC(=O)O)NC(=O)[C@H](CCCCN)NC(=O)[C@H](CO)NC(=O)[C@H](CCCCN)NC(=O)[C@H](CCCNC(=N)N)NC(=O)[C@H](Cc1ccccc1)NC(=O)[C@H](Cc1ccccc1)NC(=O)[C@H](CC(=O)O)NC(=O)CNC(=O)[C@H](CC(C)C)NC(=O)[C@@H](N)CC(C)C)C(=O)NCC(=O)N[C@@H](CCCCN)C(=O)N[C@@H](CCC(=O)O)C(=O)N[C@@H](Cc1ccccc1)C(=O)N[C@@H](CCCCN)C(=O)N[C@@H](CCCNC(=N)N)C(=O)N[C@H](C(=O)N[C@H](C(=O)N[C@@H](CCC(N)=O)C(=O)N[C@@H](CCCNC(=N)N)C(=O)N[C@H](C(=O)N[C@@H](CCCCN)C(=O)N[C@@H](CC(=O)O)C(=O)N[C@@H](Cc1ccccc1)C(=O)N[C@@H](CC(C)C)C(=O)N[C@@H](CCCNC(=N)N)C(=O)N[C@@H](CC(N)=O)C(=O)N[C@@H](CC(C)C)C(=O)N[C@H](C(=O)N1CCC[C@H]1C(=O)N[C@@H](CCCNC(=N)N)C(=O)N[C@H](C(=O)N[C@@H](CCC(=O)O)C(=O)N[C@@H](CO)C(=O)O)[C@@H](C)O)C(C)C)[C@@H](C)CC)C(C)C)[C@@H](C)CC [LL-37]
effect on NETosis: promote NETosis
